Data: US8084455B2, “Use of a kinase inhibitor for the treatment of particular resistant tumors” (Nerviano Medical Sciences S.r.l., priority 2006, dated 2011)
Substitutions are numbered along the chain they refer to. Like-named read-outs stand apart in the source and are kept apart here.

What was measured:
[1] = test system: Imatinib-resistant ABL mutants; conditions: literature; cited from earlier work
[2] = biological target: T1, T315I ABL mutant kinase domain (Homo sapiens, UniProt P00519, T315I); conditions: Table 1; displacement of probe 3.1 at 0.42 μM, 10 nM enzyme, average of three experiments
T1 sequence (P00519 229-512 T315I): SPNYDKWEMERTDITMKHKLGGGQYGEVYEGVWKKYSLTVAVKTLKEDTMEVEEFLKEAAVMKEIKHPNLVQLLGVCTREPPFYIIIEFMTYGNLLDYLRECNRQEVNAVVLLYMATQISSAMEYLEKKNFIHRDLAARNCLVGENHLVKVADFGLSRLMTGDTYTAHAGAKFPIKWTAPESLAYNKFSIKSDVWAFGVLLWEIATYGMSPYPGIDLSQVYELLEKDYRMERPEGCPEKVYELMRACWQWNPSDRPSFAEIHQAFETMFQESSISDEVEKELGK

[3] = biological target: T2, Wild-type ABL kinase domain (Homo sapiens, UniProt P00519); conditions: Table 4; displacement of probe 3.2 at 3.3 μM
T2 sequence (P00519 229-512): T1 sequence (P00519 229-512 T315I) with I87T
Description: (§1) In particular, titration data were fitted to the following equilibria: Enzyme+probe<==>Complex Enzyme-probe, while displacement data were fitted to the following equilibria: Enzyme+probe<==>Complex Enzyme-probe, Enzyme+Compound<==>Complex Enzyme-Compound, whereby binding of probe and compound on the enzyme are mutually exclusive (pure competitive mechanism).
(§2) The mixture of enzyme and probe was added to the previously diluted compounds. […] In agreement, affinity binding constants (KD) were determined by fitting with a pure competitive mechanism. KD values, are the average of three independent experiments.
(§3) The applied conditions were the same except for the saturating probe concentration (2, 3.3 and 0.2 μM for ABL wild-type unphosphorylated (0P), wild-type and T315I, respectively) and the probe final concentration (2, 3.3 and 0.2 μM for ABL wild-type unphosphorylated (0P), wild-type and T315I, respectively).
(§4) The displacement assay was performed as described before, with 3 μM as the highest inhibitor concentration tested.

[4] = biological target: T1, T315I ABL mutant kinase domain; conditions: Table 4; displacement of probe 3.2 at 0.2 μM
[5] = biological target: T2, Wild-type ABL kinase domain; conditions: Table 1; displacement of probe 3.1 at 0.12 μM, 10 nM enzyme, average of three experiments
Description: (§5) In all experiments, the fluorescence signal was measured using a Fusion α-FP HT plate reader (Packard). Data analysis was performed using the Dynafit software.
as §1, §2
(§6) The displacement assay was performed as described before, with 3 μM as the highest inhibitor concentration tested with dilution steps 1:1.5.

[6] = biological target: T3, Wild-type ABL 0P (unphosphorylated ABL kinase domain) (Homo sapiens, UniProt P00519); conditions: Table 4; displacement of probe 3.2 at 2 μM
T3 sequence (P00519 229-512): T1 sequence (P00519 229-512 T315I) with I87T
Description: as §1, §2, §3, §4

[7] = biological target: T3, Wild-type ABL 0P (unphosphorylated ABL kinase domain); conditions: Table 1; displacement of probe 3.1 at 0.15 μM, 10 nM enzyme, average of three experiments
Description: as §5, §1, §2, §6

Row | SMILES | activity against Imatinib-resistant ABL mutants [1] | Kd [2] [µM] | Kd [3] [µM] | Kd [4] [µM] | Kd [5] [µM] | Kd [6] [µM] | Kd [7] [µM]
1 | Cc1cn(-c2cc(NC(=O)c3ccc(C)c(Nc4nccc(-c5cccnc5)n4)c3)cc(C(F)(F)F)c2)cn1 [AMN107] | active against the majority | – | – | – | – | – | –
2 | Nc1ncnc2c1ncn2[C@@H]1O[C@H](COP(=O)(O)OP(=O)(O)OP(O)(O)=S)[C@@H](O)[C@H]1O [ATPγS] | – | 2 ± 0.21 | 4.8 ± 1 | 2.61 ± 0.9 | 9 ± 1.9 | 6.6 ± 1.6 | 9.5 ± 3.4
